US11040119B2, “Compositions and methods for assessing neuromuscular function” (Biogen MA Inc., priority 2013, dated 2021)
Entries after “also recorded” stand apart in the source; their conditions may differ.

Assays:
skeletal muscle [1] = assay: Effect of continuous isoflurane anesthesia on muscle uptake of the two radiopharmaceutical agents (SPECT); format: in vivo; conditions: continuous anesthesia through 30 minute uptake period vs awake uptake period; right and left legs; FIG. 3
Procedure: (§1) Imaging agents (^99mTc-Sestamibi and ^201Tl-Chloride) were ordered from commercial radiopharmacies for calibration and delivery on each day of SPECT imaging. Imaging agents were administered by intravenous injection in the lateral tail-vein. Animals were returned to their cages after injection for the distribution period or placed directly on the imaging system for SPECT acquisition, depending on the imaging protocol and desired time-points. For the imaging session, subjects were anesthetized using a gas mixture of isoflurane and oxygen. In-vivo SPECT and CT data were acquired using the NanoSPECT/CT® (Bioscan, Washington, D.C.), a dual modality imaging system that combines a 4-headed SPECT camera with a computed tomography (CT) acquisition system on the same axis of rotation. During imaging, subjects were placed on a heated bed with integrated anesthesia delivery and bed heating. The animals' body temperatures were maintained at 36 to 37° C. for the duration of image acquisition. […] Uptake and concentration of radiotracer were quantified in select regions-of-interest (ROI) using the VivoQuant™ post-processing suite.
This need for imaging under anesthesia in animals is not necessary in human imaging studies. […] Quantitative units of radioactivity per volume was expressed as uptake: percent injected dose (% ID), activity (mCi, kBq). […]

[2] = in vivo; cited from earlier work
[3] = prepared radiopharmaceutical; cited from earlier work
[4] = Simultaneous dual-radiotracer SPECT/CT imaging of 99mTc-Sestamibi and 201Tl-Cl uptake; format: in vivo, mouse and rat; conditions: FIG. 1; for retention in muscle: i.v. single injection of both agents, imaging 3 hours later
Procedure: This example describes an imaging approach for assessing skeletal muscle health by administering ^99mTc-Sestamibi and ^201Tl—Cl both in a single intravenous injection and then simultaneously detecting their accumulation into skeletal muscle through SPECT imaging via distinct radiation energy windows, which are specific for each isotope. Through this approach, each imaging agent alone, as well as the change in uptake of one agent relative to the other, was measured, permitting evaluation of multiple physiological processes in muscle simultaneously.
as §1, with “acquisition. Each imaging time-point included three scans: a planar x-ray scout scan, an x-ray CT scan for anatomical reference (6-9 min., 45-65 KVp, 180 angular projections per FOV), and a SPECT scan (20-90 min., 20 angular projections per FOV). SPECT data were reconstructed using the HiSPECT processing module (Scivis GmbH, Gottingen, Germany).” for “acquisition.”, “suite. […]” for “suite.”

skeletal muscle [5] = assay: Effect of neuromuscular stimulation with edrophonium on 99mTc-Sestamibi and 201Tl-Cl uptake into muscle (SPECT/CT); format: in vivo, rats
Procedure: In order to assess the action of neuromuscular stimulation on ^99mTc-Sestamibi and ^201Tl—Cl uptake into muscle we used the acetylcholinesterase inhibitor edrophonium (0.2 mg/kg, i.v.) to enhance ongoing neuromuscular synaptic transmission. We used three different cohorts of animals (n=3). In one cohort we examined baseline neuromuscular activity by giving the ^99mTc-Sestamibi and ^201Tl—Cl (listed as m/t in figure) at time zero and acquiring images under brief isoflurane anesthesia at 30 minutes post injection. Another cohort received edrophonium injection immediately following the m/t dosing but prior to the imaging under anesthesia. The last cohort received the edrophonium 30 minutes prior to the m/t dosing. This approach standardized the anesthesia and imaging phase of the experiment while making the edrophonium dose timing the only variable.
FIG. 4 is an exemplary schematic diagram of an experiment assessing the impact of edrophonium on the pharmacokinetics of ^99mTc-Sestamibi and ^201Tl—Cl. ^99mTc-Sestamibi and ^201Tl—Cl were imaged in three cohorts of rats (n of 3 each): control/baseline; prior to injection of 0.2 mg/kg of edrophonium; following injection of 0.2 mg/kg of edrophonium. Whole body SPECT/CT images were collected 30 minutes post-injection of the mixed ^99mTc-Sestamibi and ^201Tl—Cl dose. The drugs' gamma emissions of the radioisotopes (^99mTc and ^201Tl) were collected in separate energy windows, permitting simultaneous imaging of the relevant radiopharmaceuticals. […] Thallium uptake was increased by the introduction of edrophonium in control rats as indicated qualitatively by brighter muscle uptake on a common scale.
However, either pre- or post-m/t, edrophonium dosing had no effect on ^99mTc-Sestamibi uptake into muscle. FIG. 6 depicts comparison of radiopharmaceutical uptake in skeletal muscle between two imaging paradigms. The ‘+’ represents subjects that received an edrophonium injection (i.v.) immediately after radiotracer administration. […] All other aspects of data collection were identical between the ‘+’ and ‘−’ scenarios. Quantitative units of radioactivity per volume was expressed as uptake: percent injected dose (% ID), activity (mCi, kBq).

[6] = edrophonium i.v. immediately after radiotracer administration vs none, FIG. 6

| Compound | biological half-life [2] | extraction efficiency [2] | stability [3] [h] | retention in muscle [4] | further results |
| --- | --- | --- | --- | --- | --- |
| FC(F)OC(Cl)C(F)(F)F (centres unmarked) [isoflurane] | – | – | – | – | accumulation of both agents (99mTc-Sestamibi and 201Tl-Cl) into muscle (skeletal muscle [1]): inhibited |
| ^99mTc-Teboroxime | short | high | 6 | – | – |
| [C-]#[N+]CC(C)(C)OC.[C-]#[N+]CC(C)(C)OC.[C-]#[N+]CC(C)(C)OC.[C-]#[N+]CC(C)(C)OC.[C-]#[N+]CC(C)(C)OC.[C-]#[N+]CC(C)(C)OC.[Tc] [^99mTc-Sestamibi] | long | high | 6 | consistent retention | – |
| [Cl][201Tl] [^201Tl—Cl, ^201Thallium-Chloride] | – | – | – | consistent retention | muscle accumulation, extent relative to 99mTc-Sestamibi ([4]; i.v., imaging 3 hours post-injection): more widespread |
| CC[N+](C)(C)c1cccc(O)c1 [edrophonium] | – | – | – | – | 99mTc-Sestamibi uptake into muscle (skeletal muscle [5]; edrophonium 0.2 mg/kg i.v., either pre- or post-m/t dosing, images 30 minutes post-injection): no effect; 201Tl uptake into muscle (skeletal muscle [5]; edrophonium 0.2 mg/kg i.v., pre- or post-m/t dosing vs baseline, images 30 minutes post-injection, FIG. 5): dramatically enhanced; also recorded: increased; 99mTc-Sestamibi uptake in skeletal muscle, statistical evaluation (skeletal muscle [5]; [6]): not; 201Tl uptake in skeletal muscle, statistical evaluation (skeletal muscle [5]; [6]): highly significant edrophonium effect |
